Source: patent EP0745595A1, “3-(3-Aryloxyphenyl)-1-(substituted methyl)-s-triazine-2,4,6-oxo or thiotrione herbicidal agents” (American Cyanamid Company, priority 1995, dated 1996)

How the values were obtained:
Format in all cases: in vivo
[1] = system: TRITICUM AESTIVUM, CV. APOLLO; test: Preemergence herbicidal evaluation, TRZAWO (Wheat, Winter, CV. APOLLO); conditions: rated four to five weeks after treatment
Description: (§1) Results of herbicide evaluation are expressed on a rating scale (0-9). The scale is based upon a visual observation of plant stand, vigor, malformation, size, chlorosis and overall plant appearance as compared with a control.
(§2) The preemergence herbicidal activity of the test compounds of the present invention is exemplified by the following tests in which the seeds of a variety of monocotyledonous and dicotyledonous plants are separately mixed with potting soil and planted on top of approximately one inch of soil in separate pint cups. […] The treated cups are then placed on greenhouse benches, watered and cared for in accordance with conventional greenhouse procedures. From four to five weeks after treatment, the tests are terminated and each cup is examined and rated according to the rating system provided in Example 40.
(§3) The compounds evaluated are reported by compound number given in Example 40.

[2] = system: ORYZA SATIVA, L. TEBONNET; test: Preemergence herbicidal evaluation, ORYSAT (Rice, Tebonnet); conditions: rated four to five weeks after treatment
Description: as §1, §2, §3

[3] = system: SETARIA VIRIDIS, (L) BEAU; test: Postemergence herbicidal evaluation, SETVI (Foxtail, Green); set-up: key to SETVI rating / Herbicidal effect rating, SETVI / SETVI: 0-9 visual rating scale vs untreated control
In short: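 Each value is a 0–9 visual rating of plant appearance compared with control, recorded 4–5 weeks after a 0.125–0.500 kg/ha spray, with multiple tests averaged.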

[4] = system: GLYCINE MAX(L) MERR. CV. WILLIAMS; test: Preemergence herbicidal evaluation, GLXMAW (Soybean, Williams); conditions: rated four to five weeks after treatment
In short: (§4)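 Seeds mixed with potting soil were planted on about one inch of soil in cups, then sprayed with aqueous acetone solution of test compound at about 0.125 to 0.50 kg per hectare. Plants grown under greenhouse conditions; visual rating on a 0-9 scale versus untreated control at 4-5 weeks.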

[5] = system: AMBROSIA ARTEMISIIFOLIA, L.; test: Preemergence herbicidal evaluation, AMBEL (Ragweed, Common); conditions: rated four to five weeks after treatment
In short: as §4

[6] = system: ZEA MAYS L.; test: Preemergence herbicidal evaluation, ZEAMX (Corn, Field); conditions: rated four to five weeks after treatment
In short: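 Preemergence herbicidal activity on field corn: seeds in potting soil were sown atop roughly one inch of soil in separate pint cups, treated, and grown under standard greenhouse care. Four to five weeks post-treatment, stand, vigor, malformation, size, chlorosis and overall appearance were compared with a control and scored 0-9.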

[7] = system: CASSIA OBTUSIFOLIA, L.; test: Preemergence herbicidal evaluation, CASOB (Sicklepod); conditions: rated four to five weeks after treatment
In short: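 Preemergence herbicidal activity against sicklepod was assessed by planting seed mixed with potting soil atop about one inch of soil in pint cups. After treatment the cups were watered and handled per standard greenhouse practice. Tests ended four to five weeks later, with plant stand, vigor, malformation, size, chlorosis and overall appearance scored 0-9 relative to a control.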

[8] = system: CHENOPODIUM ALBUM, L.; test: Postemergence herbicidal evaluation, CHEAL (Lambsquarters, Common)
In short: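 Postemergence herbicidal activity on Chenopodium album was tested by spraying two-week-old seedlings grown in jiffy flats with compound in acetone/water (50/50) plus 0.5% TWEEN®20, using a 40 psi nozzle. Four to five weeks after treatment, stand, vigor, malformation, size, chlorosis and overall appearance were scored 0-9 relative to controls, with repeat tests averaged.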

[9] = system: CHENOPODIUM ALBUM, L.; test: Preemergence herbicidal evaluation, CHEAL (Lambsquarters, Common); conditions: rated four to five weeks after treatment
In short: as §4

[10] = system: CASSIA OBTUSIFOLIA, L.; test: Postemergence herbicidal evaluation, CASOB (Sicklepod); set-up: key to CASOB rating / Herbicidal effect rating, CASOB / CASOB: 0-9 visual rating scale vs untreated control
In short: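 Ratings (0-9) reflect visual stand, vigor, malformation, size and chlorosis compared with untreated plants, assessed 4-5 weeks after postemergence spraying. Treatment was applied to roughly two-week-old seedlings at about 0.125-0.500 kg/ha in acetone/water with 0.5% Tween 20; replicate tests were averaged.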

[11] = system: ORYZA SATIVA, L. TEBONNET; test: Rice tolerance to post-transplant applications under flooded paddy conditions, ORYSAT (Rice, Tebonnet); conditions: post-transplant rice, 3-4 weeks after treatment
In short: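 Visual 0-9 rating against untreated control (stand, vigor, malformation, size, chlorosis, overall appearance), taken 3-4 weeks after treatment. Flooded silt loam, water at 1.5-3 cm; two 10-day-old seedlings per pot; compound applied to flooded soil surface 3 days post-transplant at ~0.5-0.063 kg/ha.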

[12] = system: IPOMOEA SPP.; test: Postemergence herbicidal evaluation, IPOSS (Morningglory spp.)
In short: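 In this greenhouse postemergence herbicide test on Ipomoea spp. (morningglory), compounds in 50/50 acetone/water with 0.5% TWEEN®20 were sprayed at 40 psi onto seedlings about two weeks old grown in jiffy flats. After four to five weeks, injury was scored on a 0-9 scale covering stand, vigor, malformation, size, chlorosis and overall appearance versus control, with repeat tests averaged.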

[13] = system: CYPERUS IRIA; test: Preemergence weed control under flooded paddy conditions, CYPIR (Rice Flatsedge); conditions: preemergence, 3-4 weeks after treatment
In short: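 This preemergence test mimicked flooded paddy conditions: rice flatsedge propagules were sown in the upper 0.5 cm of silt loam in undrained 32 oz. containers (10.5 cm diameter), with water held 1.5 to 3 cm over the soil. After normal greenhouse care, plants were scored 0-9 for stand, vigor, malformation, size, chlorosis and appearance relative to controls.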

[14] = system: ABUTILON THEOPHRASTI, MEDIC.; test: Preemergence herbicidal evaluation, ABUTH (Velvetleaf); conditions: rated four to five weeks after treatment
Description: as §1, §2, §3

[15] = system: SAGITTARIA PYGMAEA, L.; test: Preemergence weed control under flooded paddy conditions, SAGPY (Arrowhead (Pygmaea)); conditions: preemergence, 3-4 weeks after treatment
In short: (§5)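 Visual 0-9 score (stand, vigor, malformation, size, chlorosis, appearance vs untreated control) taken 3-4 wk after treatment. Test compounds were added into flood water (1.5-3 cm over silt loam) as 50/50 v/v aqueous/acetone, equivalent to about 0.5-0.063 kg/ha a.i.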

[16] = system: CYPERUS SEROTINUS, ROTTB.; test: Preemergence weed control under flooded paddy conditions, CYPSE (Flatsedge); conditions: preemergence, 3-4 weeks after treatment
In short: as §5

[17] = system: ECHINOCHLOA CRUS-GALLI, (L) BEAU; test: Preemergence herbicidal evaluation, ECHCG (Barnyardgrass); conditions: rated four to five weeks after treatment
In short: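 In this preemergence herbicide test, cups holding seeds of ECHCG sown in potting soil over roughly one inch of soil were treated and then grown under conventional greenhouse care. Tests were ended four to five weeks after treatment, and injury was scored 0-9 from stand, vigor, malformation, size, chlorosis and overall appearance relative to a control.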

[18] = system: IPOMOEA SPP.; test: Preemergence herbicidal evaluation, IPOSS (Morningglory spp.); conditions: rated four to five weeks after treatment
Description: as §1, §2, §3

[19] = system: SETARIA VIRIDIS, (L) BEAU; test: Preemergence herbicidal evaluation, SETVI (Foxtail, Green); conditions: rated four to five weeks after treatment
Description: as §1, §2, §3

`CC(C)OC(=O)Cn1c(=O)n(C)c(=O)n(-c2cc(Oc3ncc(C(F)(F)F)cc3Cl)ccc2Br)c1=O` [Compound 44] showed a TRZAWO herbicidal rating ([1]; Rate 0.125 kg/ha) of 0.0, a TRZAWO herbicidal rating ([1]; Rate 0.250 kg/ha) of 0.0 and a TRZAWO herbicidal rating ([1]; Rate 0.500 kg/ha) of 0.0. It also gave an ORYSAT herbicidal rating ([2]; Rate 0.125 kg/ha) of 0.0, an ORYSAT herbicidal rating ([2]; Rate 0.250 kg/ha) of 0.0 and an ORYSAT herbicidal rating ([2]; Rate 0.500 kg/ha) of 0.0. The SETVI rating ([3]; Rate 0.125 kg/ha) was 9.0, the SETVI rating ([3]; Rate 0.250 kg/ha) was 9.0 and the SETVI rating ([3]; Rate 0.500 kg/ha) was 9.0. The GLXMAW herbicidal rating ([4]; Rate 0.125 kg/ha) was 0.0, the GLXMAW herbicidal rating ([4]; Rate 0.250 kg/ha) was 0.0 and the GLXMAW herbicidal rating ([4]; Rate 0.500 kg/ha) was 0.0. The AMBEL herbicidal rating ([5]; Rate 0.125 kg/ha) was 0.0, the AMBEL herbicidal rating ([5]; Rate 0.250 kg/ha) was 0.0 and the AMBEL herbicidal rating ([5]; Rate 0.500 kg/ha) was 0.0. For the same compound, the ZEAMX herbicidal rating ([6]; Rate 0.125 kg/ha) was 0.0, the ZEAMX herbicidal rating ([6]; Rate 0.250 kg/ha) was 0.0 and the ZEAMX herbicidal rating ([6]; Rate 0.500 kg/ha) was 0.0. For the same compound, the CASOB herbicidal rating ([7]; Rate 0.500 kg/ha) was 0.0, the CHEAL rating ([8]; Rate 0.125 kg/ha) was 9.0 and the CHEAL rating ([8]; Rate 0.250 kg/ha) was 9.0. It also gave a CHEAL rating ([8]; Rate 0.500 kg/ha) of 9.0, a CHEAL herbicidal rating ([9]; Rate 0.125 kg/ha) of 9.0 and a CHEAL herbicidal rating ([9]; Rate 0.250 kg/ha) of 9.0. It also gave a CHEAL herbicidal rating ([9]; Rate 0.500 kg/ha) of 9.0, a CASOB rating ([10]; Rate 0.125 kg/ha) of 9.0 and a CASOB rating ([10]; Rate 0.250 kg/ha) of 9.0. The CASOB rating ([10]; Rate 0.500 kg/ha) was 9.0, the “Herbicidal effect rating, ORYSAT” value ([11]; 0.063 kg/ha) was 1.0 and the “Herbicidal effect rating, ORYSAT” value ([11]; 0.125 kg/ha) was 1.0. The “Herbicidal effect rating, ORYSAT” value ([11]; 0.250 kg/ha) was 2.0, the “Herbicidal effect rating, ORYSAT” value ([11]; 0.500 kg/ha) was 3.0 and the IPOSS rating ([12]; Rate 0.125 kg/ha) was 9.0. It also gave an IPOSS rating ([12]; Rate 0.250 kg/ha) of 9.0 and an IPOSS rating ([12]; Rate 0.500 kg/ha) of 9.0.

In the case of `COC(=O)Cn1c(=O)n(C)c(=O)n(-c2cc(Oc3c(Cl)cccc3Cl)ccc2[N+](=O)[O-])c1=O` [Compound 37, Methyl 3-[5-(2,6-dichlorophenoxy)-2-nitrophenyl]tetrahydro-5-methyl-2,4,6-trioxo-s-triazine-1(2H)-acetate], the “Herbicidal effect rating, CYPIR” value ([13]; 0.063 kg/ha) is reported as 0.0, the “Herbicidal effect rating, CYPIR” value ([13]; 0.125 kg/ha) is reported as 0.0 and the “Herbicidal effect rating, CYPIR” value ([13]; 0.250 kg/ha) is reported as 0.0. For the same compound, the “Herbicidal effect rating, CYPIR” value ([13]; 0.500 kg/ha) was 0.0, the AMBEL herbicidal rating ([5]; Rate 0.125 kg/ha) was 0.0 and the AMBEL herbicidal rating ([5]; Rate 0.250 kg/ha) was 0.0. The AMBEL herbicidal rating ([5]; Rate 0.500 kg/ha) was 0.0, the ABUTH herbicidal rating ([14]; Rate 0.125 kg/ha) was 0.0 and the ABUTH herbicidal rating ([14]; Rate 0.250 kg/ha) was 0.0. The ABUTH herbicidal rating ([14]; Rate 0.500 kg/ha) was 0.0, the “Herbicidal effect rating, SAGPY” value ([15]; 0.063 kg/ha) was 0.0 and the “Herbicidal effect rating, SAGPY” value ([15]; 0.125 kg/ha) was 0.0. For the same compound, the “Herbicidal effect rating, SAGPY” value ([15]; 0.250 kg/ha) was 0.0, the “Herbicidal effect rating, SAGPY” value ([15]; 0.500 kg/ha) was 0.0 and the CASOB herbicidal rating ([7]; Rate 0.125 kg/ha) was 0.0. The CASOB herbicidal rating ([7]; Rate 0.250 kg/ha) was 0.0, the CASOB herbicidal rating ([7]; Rate 0.500 kg/ha) was 0.0 and the “Herbicidal effect rating, CYPSE” value ([16]; 0.063 kg/ha) was 0.0. For the same compound, the “Herbicidal effect rating, CYPSE” value ([16]; 0.125 kg/ha) was 0.0, the “Herbicidal effect rating, CYPSE” value ([16]; 0.250 kg/ha) was 0.0 and the “Herbicidal effect rating, CYPSE” value ([16]; 0.500 kg/ha) was 0.0. It also gave an ECHCG herbicidal rating ([17]; Rate 0.125 kg/ha) of 0.0, an ECHCG herbicidal rating ([17]; Rate 0.250 kg/ha) of 0.0 and an ECHCG herbicidal rating ([17]; Rate 0.500 kg/ha) of 0.0. For the same compound, the “Herbicidal effect rating, ORYSAT” value ([11]; 0.063 kg/ha) was 0.0, the “Herbicidal effect rating, ORYSAT” value ([11]; 0.125 kg/ha) was 1.0 and the “Herbicidal effect rating, ORYSAT” value ([11]; 0.250 kg/ha) was 1.0. The “Herbicidal effect rating, ORYSAT” value ([11]; 0.500 kg/ha) was 2.0, the IPOSS herbicidal rating ([18]; Rate 0.125 kg/ha) was 0.0 and the IPOSS herbicidal rating ([18]; Rate 0.250 kg/ha) was 0.0. For the same compound, the IPOSS herbicidal rating ([18]; Rate 0.500 kg/ha) was 0.0, the SETVI herbicidal rating ([19]; Rate 0.125 kg/ha) was 0.0 and the SETVI herbicidal rating ([19]; Rate 0.250 kg/ha) was 0.0. The SETVI herbicidal rating ([19]; Rate 0.500 kg/ha) was 0.0.
